Test results as given in patent US12649980B2, “Three-dimensional surface for protein and small molecule microarrays” (The Johns Hopkins University, priority 2019, dated 2026).

How the values were obtained:
DLD1 WT = assay: [3H]-2DG uptake in DLD1 WT cells; type: cell-based
Procedure: (§1) The inhibitory activity of compounds on glucose transport was analyzed by measuring the cell uptake of [3H]-2DG as previously described. Ulanovskaya et al., Chem. Biol. 2011, 18, 222-230. Briefly, cells were washed twice and incubated in low-glucose medium for 10 min. Cells were added drugs and incubated for another 10 min before adding [3H]-2DG. After 10 min incubation with [3H]-2DG, cells were washed twice and lysed with 0.2 N NaOH plus 0.2% SDS. The cell lysate was transferred to a new tube containing 1 mL of optiphase supermix. Glucose uptake was quantified with a scintillation counter.

GLUT1 [1] = biological target: T1, GLUT1 (Homo sapiens, UniProt P11166); assay: rapafucin 2D microarray screen with GLUT1-containing cell lysate; type: binding; settings: signal-to-background ratio, 2D surface, same lysate and conditions
T1 construct: The full-length human SLC2A1, SLC2A3, and SLC2A4 genes were PCR amplified and inserted into pLenti6M vector 2; expressed in transfected cells
T1 sequence (P11166 1-492): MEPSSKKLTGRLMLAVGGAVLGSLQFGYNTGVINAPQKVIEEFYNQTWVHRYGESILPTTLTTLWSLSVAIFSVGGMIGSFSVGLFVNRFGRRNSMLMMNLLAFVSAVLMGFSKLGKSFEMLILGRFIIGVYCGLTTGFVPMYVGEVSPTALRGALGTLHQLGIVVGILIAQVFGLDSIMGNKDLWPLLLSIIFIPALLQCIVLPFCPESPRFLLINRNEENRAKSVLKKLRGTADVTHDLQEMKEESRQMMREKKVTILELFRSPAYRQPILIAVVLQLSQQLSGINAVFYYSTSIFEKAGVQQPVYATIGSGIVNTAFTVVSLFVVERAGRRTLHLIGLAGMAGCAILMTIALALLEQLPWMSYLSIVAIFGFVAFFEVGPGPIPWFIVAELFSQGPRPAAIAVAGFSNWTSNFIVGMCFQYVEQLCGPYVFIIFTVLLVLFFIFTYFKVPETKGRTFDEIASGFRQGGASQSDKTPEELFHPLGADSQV
Description: (§2) Once stock solutions of the rapafucin library were arrayed on the 2D or 3D surface and most of solvent carrier was evaporated, the crosslinking reaction was initiated by irradiating the surfaces with 365-nm wavelength UV light. Kawatani and Osada, Medchemcomm 2014, 5, 277-287. […] To screen for GLUT1-interacting rapafucins, GLUT1 was stably overexpressed in HEK293T cells and generated cell lysates containing detergent-solubilized recombinant GLUT1 (FIG. 10). The GLUT1-containing cell lysate was then incubated on both 2D and 3D rapafucin microarrays. After washing the slides to remove unbound proteins, the bound GLUT1 protein was detected with anti-GLUT1 antibodies, followed by visualization with Cy5-labeled secondary antibodies using a microarray scanner. Rapafucins were scored as positive hits when the corresponding SBR was greater than 3. Based on this criterion, a total of 17 rapafucin hits and one positive control BAY-876, a specific GLUT1 inhibitor, Siebeneicher et al., ChemMedChem 2016, 11, 2261-2271, were identified on the 3D rapafucin microarray. In contrast, only one hit (WL13-F11, also among the 17 hits identified from the 3D rapafucin microarray) was identified on the 2D rapafucin microarray (Table 1, FIG. 11).
(§3) In the optimization experiments, the slides were incubated with 50 nM purified recombinant FKBP12 for 1 hour, while in the GLUT1 screening, 10 mg/mL of cell lysate containing DDM-solubilized GLUT1 from GLUT1 overexpressed HEK293T was incubated for 1 hour. Successively, primary antibody and CY5 labeled secondary antibody were added for 1 hour. The chips were washed in buffer A for 5 mins 3 times after the sample and antibodies incubation. After centrifugation, the dried chips were scanned by a microarray scanner (Genepix, US) at 635-nm wavelength. The final result was analyzed by GenePix software.

DLD1 GLUT1 KO = assay: [3H]-2DG uptake in DLD1 GLUT1 knockout cells; type: cell-based; settings: for inhibitory activity in GLUT1 knock out cells: DLD-1 GLUT1 knock out versus wild type
Procedure: as §1

GLUT1 [2] = biological target: T1, GLUT1; assay: rapafucin 3D microarray screen with GLUT1-containing cell lysate; type: binding; settings: signal-to-background ratio, 3D surface, lysate of GLUT1-overexpressing HEK293T; hit if SBR > 3
Description: as §2
The amine substrates (Arrayit, SMM) were immerged in a mixture of 2-bromoisobutyryl bromide (BIBB, 0.1 mM, as initiator) and propionyl bromide (10 mM, as horizontal spacer) with triethylamine (15 mM) in DCM for 4 hours. A degassed polymerization reaction mixture, containing copper (II) chloride dihydrate (CuCl2, 4 mmol), 2,2′-bipyridine (2 mmol), 75 mmol monomers mixture of 2-(dimethylamino)ethyl methacrylate (DMAEMA) and poly(ethylene glycol) methacrylate (PEGMA Mn 360) in 500 mL Milli-Q/MeOH, was mixed with freshly made ascorbic acid (4 mmol). The mixture was applied to 50 slides for 6 hours under the argon atmosphere for the surface-initiated polymerization. A gradient ratio of PEGMA and DMAEMA was set, including 10:0, 8:2, 5:5, 2:8 and 0:10 for an optimization purpose. The terminals of the brushes were further functionalized by N,N′-disuccinimidyl carbonate (DSC, 10 mM) and 4-dimethylaminopyridine (DMAP,10 mM) in DMF overnight to form succinimidyl carbonate intermediate, and, successively, diazirine linker 1 (10 mM) and N,Ndiisopropylethylamine (DIPEA, 50 mM) in DMF for 2 hours to couple the photoaffinity linker in dark at room temperature. At the end, the substrates were immerged in a 50 mM ethanolamine in DMF to block the residual carboxylic moiety. The slides were thoroughly washed by DMF, EtOH and DCM and dried in a fuming cupboard and ready for spotting.
10 mM of rapafucins in DMSO from the library were spotted onto the slides with a high-precision microarrayer (Nanoprint, Arrayit, CA) for a desired pattern in dark, which was loaded with 16 100-μm diameter micro-spotting pins. The pin heads were thoroughly washed and sonicated in ethanol and dried for 4 times under a compassed air between each sample loading. After overnight evaporation, the slides were exposed to 365-nm wavelength UV irradiation for 4 J/cm^2 by CL-1000L UV crosslinker (UVP, CA) for rapafucins covalent immobilization. The slides were ultrasonic cleaned successively in DCM, MeOH and Milli-Q water and stored in a −20° C. freezer.
as §3

A549 cells = assay: [3H]-2DG uptake assay in A549 cells; type: cell-based, human; settings: 10 min incubation with compound, mean ± s.d., n = 3
Procedure: To determine which of the 17 rapafucin hits inhibited the transporter activity of GLUT1, an orthogonal glucose uptake assay using 2-deoxy-D-[3H] glucose ([3H]-2DG), a nonhydrolyzable, radioactive glucose analog, was employed. Each hit was separately incubated with A549 cells for 10 min before the amount of [3H]-2DG taken up by the cells was measured using scintillation counting. […] The effect of JW11-D2 on uptake of [3H]-2DG in human red blood cells that exclusively express GLUT1 was then determined. Helgerson and Carruthers, J. Biol. Chem. 1987, 262, 5464-5475. […] To further improve the potency of JW11-D2, a structure-activity relationship (SAR) study was performed by synthesizing 21 new analogs of JW11-D2 using different amino acid building blocks.
as §1

GLUT4 = GLUT4 (Homo sapiens, UniProt P14672); assay: biotin-RgA pull-down assay, GLUT4; settings: lysate of HEK293T overexpressing GLUT4, Western blot
Chain of GLUT4 (P14672 whole entry): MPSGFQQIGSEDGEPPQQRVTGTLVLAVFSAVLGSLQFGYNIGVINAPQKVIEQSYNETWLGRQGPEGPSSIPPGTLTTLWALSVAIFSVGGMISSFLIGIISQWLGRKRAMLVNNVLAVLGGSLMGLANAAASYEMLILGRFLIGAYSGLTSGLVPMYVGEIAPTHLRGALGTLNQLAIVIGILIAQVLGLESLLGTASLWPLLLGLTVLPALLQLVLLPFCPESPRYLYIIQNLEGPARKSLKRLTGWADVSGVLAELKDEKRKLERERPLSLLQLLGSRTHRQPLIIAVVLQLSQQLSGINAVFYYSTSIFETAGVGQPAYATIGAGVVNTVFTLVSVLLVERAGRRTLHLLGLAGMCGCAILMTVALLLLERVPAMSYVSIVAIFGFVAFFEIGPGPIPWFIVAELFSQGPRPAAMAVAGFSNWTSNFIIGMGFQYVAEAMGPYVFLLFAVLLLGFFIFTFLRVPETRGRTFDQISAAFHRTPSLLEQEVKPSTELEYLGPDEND
Procedure: (§4) It was further determined whether RgA is specific for GLUT1 using a pair of isogenic cell lines.
(§5) GLUT1 or other isoforms overexpression HEK293T cells were washed once in buffer A (10 mM Tris-HCl, 150 mM KCl, 5 mM MgCl2, 1 mM EGTA, pH 7.4). To extract GLUT1 or isoforms protein, cells were mixed in buffer C (10 mM Tris-HCl, 150 mM KCl, 5 mM MgCl2, 1% DDM, 5% glycerol, 1 mM EGTA, protease inhibitor, pH 7.4) and incubated on ice for 1 h with frequent mixing. The supernatant was collected by centrifugation at 17,000 g for 10 min at 4° C., and then diluted four-fold in buffer A plus 5% glycerol to reduce the concentration of DDM. The diluted supernatant was quantified by protein assay kit and pre-incubated with streptavidin agarose beads at 4° C. for 30 min to remove the endogenous streptavidin-binding proteins. The supernatant was collected by centrifugation at 2,000 rpm for 1 min at 4° C., and diluted to 10 mg/mL for pull-down experiment. For a typical biotin pull- down reaction, 300 μL of supernatant was pretreated with competitor or equal volume of DMSO (as noted hereinabove) for 30 min, before the addition of RgA biotin probe or DMSO (as noted hereinabove). After incubation at 4° C. for 1 h with frequent mixing, 30 μL of streptavidin agarose beads in buffer A was added, and incubation was continued for 2 h. […]

GLUT1 [3] = biological target: T1, GLUT1; assay: biotin-RgA pull-down and biotin probe competition binding assay, GLUT1; settings: lysate of HEK293T overexpressing GLUT1, Western blot
Procedure: Next, the binding affinity of RgA for GLUT1 was determined using a RgA biotin pull-down assay. A biotin-RgA conjugate was synthesized by tethering the biotin moiety through carbon:carbon double bond in the FKBP-binding domain of RgA (FIG. 13). […] Using the biotin-RgA conjugate, a pulldown experiment with cell lysate containing detergent-solubilized GLUT1 protein prepared from HEK293T cells overexpressing GLUT1 was performed, followed by Western blot analysis with a GLUT1-specific antibody.
The estimation of Kd value for RgA was determined with the biotin probe competition binding assay. […] After western blot, band intensities were quantified by densitometry analysis using Image J software. The assay was repeated three times. GraphPad Prism (v4.03) software was used to determine apparent Kd value for RgA using a nonlinear regression.

GLUT3 = GLUT3 (Homo sapiens, UniProt P11169); assay: biotin-RgA pull-down assay, GLUT3; settings: lysate of HEK293T overexpressing GLUT3, Western blot
Chain of GLUT3 (P11169 whole entry): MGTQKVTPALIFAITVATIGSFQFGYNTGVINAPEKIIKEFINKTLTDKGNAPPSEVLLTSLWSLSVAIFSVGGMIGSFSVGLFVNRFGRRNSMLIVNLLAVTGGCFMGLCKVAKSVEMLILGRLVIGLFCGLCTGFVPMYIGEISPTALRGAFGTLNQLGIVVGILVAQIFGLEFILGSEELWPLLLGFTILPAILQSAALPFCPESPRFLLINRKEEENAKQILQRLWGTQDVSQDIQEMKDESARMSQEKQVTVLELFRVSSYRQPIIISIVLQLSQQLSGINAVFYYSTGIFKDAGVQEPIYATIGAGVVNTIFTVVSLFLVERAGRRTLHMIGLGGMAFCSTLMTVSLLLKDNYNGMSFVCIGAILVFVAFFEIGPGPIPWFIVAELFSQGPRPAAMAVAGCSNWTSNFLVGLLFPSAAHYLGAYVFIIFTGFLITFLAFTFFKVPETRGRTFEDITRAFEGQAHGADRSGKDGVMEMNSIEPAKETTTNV
Procedure: as §4, §5

[4] = tested on: glutathione S-transferases; settings: Yamada and Kaplowitz 1980; cited from earlier work

2D SBR (GLUT1 [1]) | 3D SBR (GLUT1 [2]) | IC50 (A549 cells) [nM] | SMILES | also measured
<3.0 | 3.2 ± 0.74 | – | Cc1c(NC(=O)c2cc(C(N)=O)nc3cc(F)ccc23)c(C(F)(F)F)nn1Cc1ccc(C#N)cc1 [BAY-876] | EC50 (DLD1 WT; Homo sapiens, DLD-1, DLD1 wild type): 8 ± 1.1 nM; inhibitory activity in GLUT1 knock out cells (DLD1 GLUT1 KO): lost its inhibitory activity; EC50 (DLD1 GLUT1 KO; Homo sapiens, DLD-1, DLD1 GLUT1 knockout): > 1000 nM
– | – | – | C=C1[C@@H](C)[C@H]2[C@H](Cc3ccccc3)NC(=O)[C@]23OC(=O)/C=C/[C@H](O)CCC[C@@H](C)C/C=C/[C@H]3[C@@H]1O [Cytochalasin B, cytochalasin B] | EC50 (DLD1 WT; DLD1 wild type): 545 ± 40.5 nM; EC50 (DLD1 GLUT1 KO; DLD1 GLUT1 knockout): 390 ± 32.7 nM; inhibitory activity in GLUT1 knock out cells (DLD1 GLUT1 KO): maintained its inhibitory activity
<3.0 | 3.4 ± 1.4 | > 3000 | CCCC[C@H]1C(=O)N[C@@H](Cc2ccccc2)C(=O)N(C)CCC=CC(=O)OCC(C)(C)C(=O)C(=O)N2CCCC[C@H]2C(=O)O[C@H](CCc2ccc(OC)c(OC)c2)c2cccc(c2)NC(=O)CCC(=O)N(C)[C@H](Cc2ccccc2)C(=O)N[C@@H](Cc2ccc(F)cc2)C(=O)N1C [HP05-A9] | –
<3.0 | 7.9 ± 2.6 | > 3000 | CCC(C)C1C(=O)NC(Cc2ccccc2)C(=O)N(C)CCC=CC(=O)OCC(C)(C)C(=O)C(=O)N2CCCCC2C(=O)OC(CCc2ccc(OC)c(OC)c2)c2cccc(c2)OCC(=O)N(C)CC(=O)NC(Cc2ccc(F)cc2)C(=O)N1C (stereo not shown) [HP05-F5] | –
<3.0 | 5.1 ± 0.7 | > 3000 | COc1ccc(CC[C@H]2OC(=O)[C@@H]3CCCCN3C(=O)C(=O)C(C)(C)COC(=O)C=CCCN(C)C(=O)CNC(=O)CN(C)C(=O)[C@H](Cc3ccc(O)cc3)NC(=O)[C@@H](Cc3ccccc3)N(C)C(=O)COc3cccc2c3)cc1OC [WL03-G11] | –
<3.0 | 6.4 ± 1.8 | > 3000 | COc1ccc(CC[C@H]2OC(=O)[C@@H]3CCCCN3C(=O)C(=O)C(C)(C)COC(=O)C=CCCN(C)C(=O)[C@H](Cc3ccccc3)N(C)C(=O)CCNC(=O)CN(C)C(=O)[C@H](Cc3ccc(O)cc3)NC(=O)COc3cccc2c3)cc1OC [WL05-D8] | –
<3.0 | 4.8 ± 0.5 | > 3000 | CCCC[C@H]1C(=O)N2CCC[C@@H]2C(=O)N(C)CCC=CC(=O)OCC(C)(C)C(=O)C(=O)N2CCCC[C@H]2C(=O)O[C@H](CCc2ccc(OC)c(OC)c2)c2cccc(c2)OCC(=O)N(C)CC(=O)N[C@H](Cc2ccc(NC(=O)OC(C)(C)C)cc2)C(=O)N1C [WL11-E7] | –
<3.0 | 3.9 ± 0.3 | > 3000 | CCCC[C@H]1C(=O)N2CCC[C@@H]2C(=O)N(C)CCC=CC(=O)OCC(C)(C)C(=O)C(=O)N2CCCC[C@H]2C(=O)O[C@H](CCc2ccc(OC)c(OC)c2)c2cncc(c2)OCC(=O)N(C)CC(=O)N[C@@H](Cc2ccccc2)C(=O)N1C [WL11-G9] | –
<3.0 | 8.8 ± 2.0 | > 3000 | COc1ccc(CC[C@H]2OC(=O)[C@@H]3CCCCN3C(=O)C(=O)C(C)(C)COC(=O)C=CCCN(C)C(=O)[C@H]3CCCN3C(=O)[C@H](C(C)C)N(C)C(=O)[C@H](Cc3ccc([N+](=O)[O-])cc3)NC(=O)CN(C)C(=O)COc3cccc2c3)cc1OC [WL12-G5] | –
– | – | – | C=C(CC)C(=O)c1ccc(OCC(=O)O)c(Cl)c1Cl [ethacrynic acid] | proportion of bound ethacrynic acid that was bound covalently [4]: 13.5%

SMILES | 2D SBR (GLUT1 [1]) | 3D SBR (GLUT1 [2]) | IC50 (A549 cells) [nM] | also measured
CCC(C)C1C(=O)NCC(=O)N(C)CCC(SCCCSCC(=O)NCCOCCOCCNC(=O)CCCCC2SCC3NC(=O)NC32)CC(=O)OCC(C)(C)C(=O)C(=O)N2CCCCC2C(=O)OC(CCc2ccc(OC)c(OC)c2)c2cccc(c2)NC(=O)CCC(=O)N(C)C(CC(C)C)C(=O)NC(Cc2ccccc2)C(=O)N1C (stereo not shown) [biotin-RgA] | – | – | 211 | pulldown of GLUT4 (GLUT4): able to pull down both GLUT3 and GLUT4; pulldown of GLUT1 (GLUT1 [3]): capable of pulling down GLUT1; pulldown of GLUT3 (GLUT3): able to pull down both GLUT3 and GLUT4
